Measurements: ChEMBL document CHEMBL1914390, “A new method for induced fit docking (GENIUS) and its application to virtual screening of novel HCV NS3-4A protease inhibitors” (Bioorg Med Chem, 2011)

How the values were obtained:
[1] = Cytotoxicity against human HuH7 cells expressing chimeric gene encoding firefly luciferase and neomycin phosphotransferase assessed as cell proliferation after 72 hrs by MTT assay; assay type: cell-based, Huh-7
Hepatitis C virus = experiment: Antiviral activity against Hepatitis C virus infected in human Huh7/Rep-Feo cells assessed as inhibition of viral replication after 72 hrs by luciferase assay; assay type: functional, organism-based, Hepacivirus hominis; settings: Huh-7, 72 h
[2] = Inhibition of HCV recombinant N-terminal histidine-tagged NS3/4A protease expressed Escherichia coli using Mca-Asp-Asp-Ile-Val-Pro-Cys-Ser-Met-Lys(Dnp)-Arg-Arg as fluorogenic substrate after 30 mins by FRET assay; set-up: species or system Hepacivirus hominis
Hepacivirus hominis [3] = experiment: Ratio of EC50 for HCV to IC50 for HCV recombinant N-terminal histidine-tagged NS3/4A protease
[4] = Selectivity index, ratio of CC50 for human HuH7 cells expressing chimeric gene encoding firefly luciferase and neomycin phosphotransferase by cell titer-glo luminescent cell viability assay to EC50 for HCV; set-up: species or system Huh-7
[5] = Cytotoxicity against human HuH7 cells expressing chimeric gene encoding firefly luciferase and neomycin phosphotransferase assessed as cell viability after 72 hrs by cell titer-glo luminescent assay; assay type: cell-based, Huh-7
Hepacivirus hominis [6] = experiment: Inhibition of HCV recombinant N-terminal histidine-tagged NS3/4A protease expressed Escherichia coli using Mca-Asp-Asp-Ile-Val-Pro-Cys-Ser-Met-Lys(Dnp)-Arg-Arg as fluorogenic substrate at 100 uM after 30 mins by FRET assay
[7] = Selectivity index, ratio of CC50 for human HuH7 cells expressing chimeric gene encoding firefly luciferase and neomycin phosphotransferase by MTT assay to EC50 for HCV; set-up: species or system Huh-7

IC50 [2] [µM] | SMILES | CC50 at 72 h [1] [µM] | EC50 (Hepatitis C virus) [µM] | Ratio (Hepacivirus hominis [3]) | Ratio CC50/EC50 [4] | CC50 at 72 h [5] [µM] | inhibition (Hepacivirus hominis [6]) [%] | Ratio CC50/EC50 [7]
12.3 | COc1cc(/C=N/NC(=O)COc2ccc([N+](=O)[O-])cc2)ccc1OC(=O)c1sc2ccccc2c1Cl | > 125 | 93 | 10 |  |  |  | 
17.1 | COc1cc(/C=N/NC(=O)c2cc3cc([N+](=O)[O-])ccc3o2)c(C)cc1OCc1ccc([N+](=O)[O-])cc1 |  |  |  |  |  |  | 
4.08 | COc1cc(/C=N/NC(=O)C(C)Oc2ccc([N+](=O)[O-])cc2)ccc1OC(=O)c1sc2ccccc2c1Cl (centres undefined) | > 125 | 121 | 10 |  |  |  | 
 | CCOc1cc(/C=N/NC(=O)C(C)Oc2ccc([N+](=O)[O-])cc2)ccc1OC(=O)c1ccc(Cl)cc1Cl (centres undefined) | > 125 | 23 |  |  |  | 42.9 | >5.4
11.9 | CCc1cc(OCc2ccc([N+](=O)[O-])cc2)c(OC)cc1/C=N/NC(=O)c1cc2cc([N+](=O)[O-])ccc2o1 |  |  |  |  |  |  | 
8.07 | C=CCc1cc(/N=N/C(=O)c2cc3cc([N+](=O)[O-])ccc3o2)cc(OCC)c1OCc1ccc(Cl)cc1 | > 125 | > 125 |  |  |  |  | 
 | CCCOc1ccc(C(=O)Oc2ccc(/C=N/NC(=O)COc3ccc([N+](=O)[O-])cc3)cc2OCC)cc1 | > 125 | 13 |  |  |  | 38 | >9.6
8.34 | COc1cc(/C=N/NC(=O)c2cc3cc([N+](=O)[O-])ccc3o2)cc([N+](=O)[O-])c1OCc1ccc([N+](=O)[O-])cc1 |  |  |  |  |  |  | 

SMILES | IC50 [2] [µM] | CC50 at 72 h [1] [µM] | EC50 (Hepatitis C virus) [µM] | Ratio (Hepacivirus hominis [3]) | Ratio CC50/EC50 [4] | CC50 at 72 h [5] [µM] | inhibition (Hepacivirus hominis [6]) [%] | Ratio CC50/EC50 [7]
COc1ccc(C(=O)Cc2ccc3ccccc3c2/C=N/NC(=O)COc2ccc([N+](=O)[O-])cc2)cc1 | 64.3 | > 125 | 8.5 |  | 1.1 | 9 |  | 
CC(Oc1ccc([N+](=O)[O-])cc1)C(=O)N/N=C/c1ccccc1OC(=O)c1sc2ccccc2c1Cl (centres undefined) | 1.01 | > 125 | 12.5 | 10 | 1.5 | 19 |  | 
CCC(C)Oc1ccc(/N=N/C(=O)c2cc3cc([N+](=O)[O-])ccc3o2)cc1Br (centres undefined) | 22.7 | 57 | 13.5 |  | 2.6 | 36 |  | 
O=C(COc1ccc([N+](=O)[O-])cc1)N/N=C/c1ccccc1OC(=O)c1sc2ccccc2c1Cl | 1.06 | > 125 | 19.5 | 10 | 2.1 | 40 |  | 
COc1cc(/C=N/NC(=O)c2cc3cc([N+](=O)[O-])ccc3o2)ccc1OCc1ccc([N+](=O)[O-])cc1 | 8.59 | > 125 | 12 |  | >9.3 | > 80 |  | 
